Results as given in patent US11918582B2 (RAPT Therapeutics, Inc., priority 2021, dated 2024).
Structures can show the parent of a compound that is named as a salt.

Target: T1, human HPK1 (MAP4K1) (Homo sapiens, UniProt Q92918)
T1 construct: Recombinant human HPK1 kinase domain was obtained from ThermoFisher (Cat. #PV6357) and SignalChem (Cat. #M23-11G); purchased ThermoFisher; SignalChem PV6357; M23-11G
T1 sequence (Q92918 17-274 limits assumed): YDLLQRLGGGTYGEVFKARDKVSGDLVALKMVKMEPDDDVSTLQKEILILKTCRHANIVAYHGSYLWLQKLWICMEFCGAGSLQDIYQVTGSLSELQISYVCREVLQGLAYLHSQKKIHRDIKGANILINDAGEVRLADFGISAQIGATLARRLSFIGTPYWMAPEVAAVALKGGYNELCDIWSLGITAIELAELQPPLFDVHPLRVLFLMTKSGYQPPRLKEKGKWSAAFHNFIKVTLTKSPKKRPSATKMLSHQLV
Test: Biochemical assay for activity against HPK1 (ADP-Glo, MBP substrate)
Details: recombinant human HPK1 kinase domain, 1 nM enzyme, ADP-Glo luminescence
Method in brief: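 Recombinant human HPK1 kinase domain (1 nM solution) preincubated 15 min at room temperature with compounds in pH 7.5 HEPES buffer with NaCl, TCEP, MgCl2, Tween-20, BSA. MBP substrate with ATP added, reaction run 2 h at room temperature. ADP formation read by ADP-Glo luminescence to give IC50.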

COc1cc2c(cc1Nc1ncc3cnn([C@H]4C[C@](C)(CO)C4)c3n1)CN(C)CC2 [Example 76, trans-[3-[6-[(6-methoxy-2-methyl-3,4-dihydro-1H-isoquinolin-7-yl)amino]pyrazolo[3,4-d]pyrimidin-1-yl]-1-methyl-cyclobutyl]methanol]
IC50: < 100 nM

CC(=O)N1CCC[C@H]1Cn1ncc2cnc(Nc3cc4c(cc3C)CCN(C)C4)nc21 [Example 183, (S)-1-(2-((6-((2,6-dimethyl-1,2,3,4-tetrahydroisoquinolin-7-yl)amino)-1H-pyrazolo[3,4-d]pyrimidin-1-yl)methyl)pyrrolidin-1-yl)ethan-1-one]
IC50: < 100 nM

COc1cc2c(cc1Nc1ncc3c(C)nn([C@H]4CC[C@@H](O)CC4)c3n1)CN(C)CC2 [Example 45, (cis)-4-(6-((6-methoxy-2-methyl-1,2,3,4-tetrahydroisoquinolin-7-yl)amino)-3-methyl-1H-pyrazolo[3,4-d]pyrimidin-1-yl)cyclohexan-1-ol]
IC50: < 100 nM

COc1cc2c(cc1Nc1ncc3cnn(C[C@@H]4CCCN4C(N)=O)c3n1)CN(C)CC2 [Example 217, (2S)-2-[[6-[(6-methoxy-2-methyl-3,4-dihydro-1H-isoquinolin-7-yl)amino]pyrazolo[3,4-d]pyrimidin-1-yl]methyl]pyrrolidine-1-carboxamide]
IC50: < 100 nM

COc1cc2c(cc1Nc1ncc3cnn(C[C@@H]4CCC[C@@H]4C(=O)O)c3n1)CN(C)CC2 (racemic) [Example 162, Rac-cis-2-[[6-[(6-methoxy-2-methyl-3,4-dihydro-1H-isoquinolin-7-yl)amino]pyrazolo[3,4-d]pyrimidin-1-yl]methyl]cyclopentanecarboxylic Acid]
IC50: < 100 nM

COc1cc2c(cc1Nc1ncc3c(C)nn([C@@H]4CCC[C@@H](C(N)=O)C4)c3n1)CN(C)CC2 [Example 56, (1R,3R)-3-(6-((6-methoxy-2-methyl-1,2,3,4-tetrahydroisoquinolin-7-yl)amino)-3-methyl-1H-pyrazolo[3,4-d]pyrimidin-1-yl)cyclohexane-1-carboxamide]
IC50: < 100 nM

COc1cc2c(cc1Nc1ncc3cnn(C[C@@H]4CCCN(S(C)(=O)=O)C4)c3n1)CN(C)CC2 [Example 141, 6-methoxy-2-methyl-N-[1-[[(3S)-1-methylsulfonyl-3-piperidyl]methyl]pyrazolo[3,4-d]pyrimidin-6-yl]-3,4-dihydro-1H-isoquinolin-7-amine]
IC50: < 100 nM

COc1cc2c(cc1Nc1ncc3cnn([C@H]4CC[C@@H](C(=O)O)CC4)c3n1)CN(C)CC2 [Example 26, (1s,4s)-4-(6-((6-methoxy-2-methyl-1,2,3,4-tetrahydroisoquinolin-7-yl)amino)-1H-pyrazolo[3,4-d]pyrimidin-1-yl)cyclohexane-1-carboxylic acid]
IC50: < 100 nM

COCCN1CCc2cc(OC)c(Nc3ncc4cnn(C[C@@H]5CCCN5C(C)=O)c4n3)cc2C1 [Example 197, (S)-1-(2-((6-((6-methoxy-2-(2-methoxyethyl)-1,2,3,4-tetrahydroisoquinolin-7-yl)amino)-1H-pyrazolo[3,4-d]pyrimidin-1-yl)methyl)pyrrolidin-1-yl)ethan-1-one Hydrochloride]
IC50: < 100 nM

CN1CCc2ccc(Nc3ncc4cnn(C5CCNCC5)c4n3)cc2C1 [Example 16, 2-methyl-N-(1-(piperidin-4-yl)-1H-pyrazolo[3,4-d]pyrimidin-6-yl)-1,2,3,4-tetrahydroisoquinolin-7-amine hydrochloride]
IC50: < 100 nM

COc1cc2c(cc1Nc1ncc3cnn([C@H]4CC[C@H](O)CC4)c3n1)CN(CC(F)F)CC2 [Example 154, trans-4-(6-((2-(2,2-difluoroethyl)-6-methoxy-1,2,3,4-tetrahydroisoquinolin-7-yl)amino)-1H-pyrazolo[3,4-d]pyrimidin-1-yl)cyclohexan-1-ol]
IC50: < 100 nM

COc1cc2c(cc1Nc1ncc3cnn([C@@H](C)CCO)c3n1)CN(C)CC2 [Example 100]
IC50: < 100 nM
